According to patent US20030162759A1, “Aldosterone blocker therapy to prevent or treat inflammation-related disorders” (priority 2000, published 2003):
“And” between values parts separate entries of the source, which are not always exact repeats. Equal values may be shown once. “Also recorded” adds a separate entry of the source.

How the values were obtained:
Assay type in all cases: in vivo, rat
[1] = system: Vascular Cell Adhesion Molecule-1 (VCAM-1); assay: Assay C: VCAM-1 relative mRNA expression in heart (TaqMan); settings: for VCAM, Mean / VCAM: mRNA; for VCAM, Mean: group mean; for VCAM: individual rats
Protocol: The procedure of Assay B was expanded upon in a further study. […] Myocardial tissue from animals in each treatment group was examined after 7, 14, or 30 days of treatment.
Potassium chloride supplementation was added to the saline solution in order to prevent the potential hypokalemia associated with aldosterone excess.
At the time of the surgery, an Alzet 2002 osmotic minipump (Alza Corp., Palo Alto, Calif.) containing either vehicle (9% ethanol/87% propylene glycol/4% dH2O) or 1.0 mg/mL d-aldosterone (Sigma Chemical, St. Louis, Mo.) was inserted subcutaneously at the nape of the neck. Aldosterone was administered at a dose of 0.75 g/hour. […] Animals were sacrificed from each group (n=8-13) after 7, 14, or 30 days of treatment.
The fluorogenic 5′-nuclease assay (TaqMan PCR) using Applied Biosystems' 7700 Sequence Detection System (Applied Biosystems, Foster City, Calif.) allowed for real time detection/quantitation of a specific gene by monitoring the increase in fluorescence of a gene-specific, dye-labeled oligonucleotide probe. Probes for target and reference genes were labeled at the 5′-end with a 6-carboxyfluorescein (6FAM) reporter dye and at the 3′-end with a 6-carboxy-N,N,N′,N′-tetramethylrhodamine (TAMRA) quencher dye. When the probe was annealed to the target gene, fluorescence of 6FAM was prevented by the close proximity of TAMRA. The exonuclease activity of Taq polymerase released the dyes from the oligonucleotide probe by displacing the probe from the target sequence resulting in fluorescence excitation in direct proportion to the amount of target message present. Data analysis was performed using the Sequence Detection System software from Applied Biosystems.
All primers and probes were designed using Primer Express software supplied with the 7700 Sequence Detection System and synthesized by Applied Biosystems. Standard curves using 5-fold dilutions of total RNA (from 200 ng to 320 pg) were performed to determine the efficiency of each primer/probe set in the TaqMan reaction prior to the analysis of the experimental samples. Primer/probe sets were designed from known sequences of rat genes to be analyzed. All target gene values were normalized to a reference gene, constitutively expressed cyclophilin. Primer/probe set sequences can be found in Table 8.
RNA was extracted from frozen (−80° C.) rat heart tissue using the Totally RNA Isolation Kit (Ambion, Inc., Austin, Tex.). Tissue was crushed using a stainless steel mortar and pestle, which had been chilled to −80° C. and transferred to a dounce homogenizer (Kontes, Vineland, N.J.) containing 3-10 mL cold denaturation buffer. Tissue was homogenized and transferred to a sterile, 15 mL polypropylene centrifuge tube. An equal volume of phenol:chloroform:isoamyl alcohol (25:24:1) was added, samples were shaken vigorously for 1 min, and incubated on ice for at least 15 min. Samples were centrifuged for 30 min at 10,000 g. The aqueous phase was removed, 1/10 volume of a sodium acetate solution (3.0 M NaOAc pH 4.5) was added, samples were shaken or inverted for 10 seconds, and acid-phenol (premixed with isoamyl alcohol):chloroform (5:1, Ambion, Inc.) was added at an volume equivalent to the starting sample volume. Samples were shaken vigorously for 1 min, followed by a 15-min incubation on ice, and centrifuged for 30 min at 10,000 g. The aqueous phase removed and placed in a clean polypropylene tube. An equal volume of isopropanol (Sigma, St. Louis, Mo.) was added and the samples were mixed and incubated overnight at −20° C. The samples were centrifuged for 30 min at 10,000 g, the supernatant was removed and the RNA pellet was resuspended in DNAse/RNAse-free water. Samples were frozen at −80° C. for at least 2 hours, thawed on wet ice, and diluted for quantitation.

[2] = system: aldosterone + salt treated rats; assay: Assay C: myocardial histopathology, semi-quantitative injury score 0 to 4; settings: for Myocardial Necrosis (0-4), Mean: group mean
Protocol: The procedure of Assay B was expanded upon in a further study. […] Myocardial tissue from animals in each treatment group was examined after 7, 14, or 30 days of treatment. […] Lesions were preceded by the expression and progressive upregulation of proinflammatory molecules. […] Prior to surgery the animals were individually weighed and placed in one of the following groups: […] Potassium chloride supplementation was added to the saline solution in order to prevent the potential hypokalemia associated with aldosterone excess. […] Louis, Mo.) was inserted subcutaneously at the nape of the neck. Aldosterone was administered at a dose of […]. […] Animals were sacrificed from each group (n=8-13) after 7, 14, or 30 days of treatment. Following exsanguination, hearts and kidneys were isolated, removed, rinsed in cold phosphate-buffered saline, and blotted dry. […] The equatorial regions of the heart were routinely processed into paraffin with an automated tissue processor (Hypercenter XP, Shandon/Lipshaw Inc., Pittsburgh, Pa.) and embedded into fresh paraffin apical side down (Shandon Embedding Center, Shandon/Lipshaw Inc.). […] Ten m sections were stained with the collagen specific stain, Picrosirius Red F3BA (Saturated Picric Acid (Sigma Chemical, St. […] Waterbury, Conn.) (6). Mounted tissues were hydrated with water. […] Slides were coverslipped with #1 cover glass using Permount Histological Mounting Media (Fisher Scientific). Two slides mounted with 5 m sections were cut for each animal. One slide was processed for H&E staining and one for Periodic Acid Schiff (PAS) staining. The H&E and PAS were used for pathological scoring of the hearts. Semi-quantification of myocardial injury was performed as described previously with minor modifications (7). Briefly, a scale from 0 to 4 was used to score the level of myocardial injury. A score of 0 represented no damage. […] Myocardial necrosis was defined as the presence of necrotic changes in cardiomyocytes such as nuclear pyknosis or karyolysis, non-contracting marginal wavy fibers and hypereosinophilia of the cytoplasm, or clear evidence of destruction of the cardiomyocyte membrane.

osteopontin = assay: Assay B aldosterone infusion model: osteopontin immunohistochemistry of hearts; settings: aldosterone infused rats; eplerenone 100 mpk p.o.
Protocol: Assay B: In vivo Aldosterone Infusion Model Male Sprague Dawley rats (n=39; BW=250 g) […] Uni-nephrectomy performed during implantation of mini-pumps 2. Aldosterone ([…], sc via aizet minipump) 2. […] 1. […] Sacrifice after 4 weeks. Determination of osteopontin and COX-2 was performed by quantitative RT-PCR (Taqman). Osteopontin was also identified in the heart by immunohistochemistry.

Row | Structure (SMILES) | VCAM-1 gene expression increase ([1]; day 30 of aldosterone+salt treatment, did not reach statistical significance) | VCAM, Mean ([1]; 30 days of treatment) | VCAM ([1]; 7 days of treatment, listed as Aldosterone + salt) | VCAM ([1]; 14 days of treatment, listed as Aldosterone + salt) | VCAM ([1]; 30 days of treatment, listed as Aldosterone + salt) | Myocardial Necrosis (0-4) ([2]; Table 9.14, 7-day protocol, score 0-4, group Mean) | Myocardial Necrosis (0-4) ([2]; Table 9.14, 7-day protocol, score 0-4, individual rats) | Myocardial Necrosis (0-4), Mean ([2]; 14 days of treatment) | Myocardial Necrosis (0-4), Mean ([2]; 30 days of treatment) | Myocardial Necrosis (0-4) ([2]; mean ± SEM after 7 days of treatment, eplerenone 100 mg/kg/day) | Osteopontin expression in the heart (immunostaining) (osteopontin) | VCAM, Mean ([1]; 7 days of treatment) | VCAM, Mean ([1]; 14 days of treatment) | VCAM ([1]; 7 days of treatment, listed as Eplerenone + aldosterone + salt) | VCAM ([1]; 14 days of treatment, listed as Eplerenone + aldosterone + salt) | VCAM ([1]; 30 days of treatment, listed as Eplerenone + aldosterone + salt) | VCAM-1 mRNA expression in myocardium ([1]; time course 7, 14, 30 days, eplerenone 100 mg/kg/day) | Myocardial injury (vascular and myocardial damage, histopathology) ([2]; 7, 14, 30 days, eplerenone 100 mg/kg/day) | Myocardial Necrosis (0-4) ([2]; individual rats, 14 days of treatment, eplerenone 100 mg/kg/day, listed as Eplerenone + aldosterone + salt) | Myocardial Necrosis (0-4) ([2]; mean ± SEM after 30 days of treatment, eplerenone 100 mg/kg/day)
1 | C[C@]12CCC(=O)C=C1CC[C@@H]1[C@@H]2[C@@H](O)C[C@]2(C=O)[C@@H](C(=O)CO)CC[C@@H]12 [aldosterone] | increased two-fold | 2.14 AU | 0.85 AU and 0.61 AU and 0.94 AU and 0.27 AU | 0.89 AU and 0.69 AU and 0.84 AU and 0.72 AU | 0.72 AU | 0.0 | 0.0 | 0.8 | 2.0 | 0.0 ± 0.0 | osteopontin was clearly identified in the media of coronary arteries |  |  |  |  |  |  |  |  | 
2 | COC(=O)[C@@H]1CC2=CC(=O)CC[C@]2(C)[C@@]23O[C@@H]2C[C@@]2(C)[C@@H](CC[C@@]24CCC(=O)O4)[C@H]13 [eplerenone, Pregn-4-ene-7,21-dicarboxylic acid, 9,11-epoxy-17-hydroxy-3-oxo-, γ-lactone, methyl ester, (7α, 11α, 17β) -] |  | 1.04 AU |  |  |  |  |  | 0.5 | 0.0 |  | prevention by eplerenone of induction of osteopontin expression; also recorded: prevented the expression of osteopontin | 0.56 AU | 0.83 AU | 0.67 AU and 0.58 AU and 0.22 AU and 0.57 AU and 0.53 AU and 1.00 AU | 0.54 AU and 0.66 AU and 0.61 AU (2×) and 0.67 AU and 0.86 AU and 1.00 AU and 0.68 AU (2×) and 1.60 AU | 0.79 AU and 0.52 AU and 0.57 AU and 0.61 AU | significantly reduced; also recorded: inhibition of early time-course expression of myocardial ICAM-1 and VCAM-1 | markedly attenuated myocardial injury at all time points; also recorded: markedly attenuated this initial vascular inflammatory response and subsequent myocardial injury | 0.0 | 0.0 ± 0.0
